The numbers were not newly measured in patent US20150173349A1, “Agroformulation comprising copolymer of an amide, polyalkylene glycol (meth)acrylate, and alkyl (meth)acrylate” (BASF SE, priority 2012, published 2015), which cites them from elsewhere.

For this data set the following is noted: 20° C.

Structures are written as SMILES. In brackets after ≈: the same amount, converted by molar mass.

As to `Cn1cc(C(=O)Nc2ccccc2-c2cc(F)c(F)c(F)c2)c(C(F)F)n1` [fluxapyroxad], the solubility in water is 3.88 µg/mL (≈ 10.2 µM).
